Measured values: patent publication US20220193068A1, “A GRK2 PROTEIN INHIBITOR COMPOUND AND A PHARMACEUTICAL COMPOSITION COMPRISING THE SAME” (CONSEJO NACIONAL DE INVESTIGACIONES CIENTÍFICAS Y TÉCNICAS …, priority 2019, published 2022)
pEC50: −log10 of the molar value.

How the values were obtained:
[1] = biological target: T1, RGS domain of GRK2 (GRK2-K220R variant) (Bos taurus, UniProt P21146, K220R); assay: cAMP response of rH2 to amthamine in HEK293 clones overexpressing rH2 and GRK2-K220R; assay type: cell-based; conditions: 40 min pretreatment, C2-C5 at 10 μM or 100 μM, L96B at 100 nM or 1 μM, 10 μM amthamine, *p<0.05
T1 construct: expressed in transfected cells
T1 sequence (P21146 1-689 K220R): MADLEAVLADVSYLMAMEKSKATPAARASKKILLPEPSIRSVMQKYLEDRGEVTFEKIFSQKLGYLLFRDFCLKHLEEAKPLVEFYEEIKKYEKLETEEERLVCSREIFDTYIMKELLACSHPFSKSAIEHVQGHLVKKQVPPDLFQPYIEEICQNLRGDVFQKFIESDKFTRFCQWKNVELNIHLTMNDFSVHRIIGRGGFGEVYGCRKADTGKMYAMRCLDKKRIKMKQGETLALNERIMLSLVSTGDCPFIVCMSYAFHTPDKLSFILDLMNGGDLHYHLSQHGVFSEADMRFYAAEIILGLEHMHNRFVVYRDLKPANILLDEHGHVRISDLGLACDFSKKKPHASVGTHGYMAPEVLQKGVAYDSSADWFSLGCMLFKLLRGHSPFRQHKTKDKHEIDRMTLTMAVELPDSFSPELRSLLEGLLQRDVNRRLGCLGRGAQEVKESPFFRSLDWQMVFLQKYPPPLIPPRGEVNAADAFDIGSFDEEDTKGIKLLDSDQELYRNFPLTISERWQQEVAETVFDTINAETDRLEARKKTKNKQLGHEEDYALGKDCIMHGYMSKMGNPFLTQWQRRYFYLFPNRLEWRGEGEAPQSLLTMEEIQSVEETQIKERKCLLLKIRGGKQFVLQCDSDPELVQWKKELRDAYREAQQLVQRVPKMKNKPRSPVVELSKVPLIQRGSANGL
Text: In order to assess the effect of inhibitors of the RGS domain of GRK2, a cell model derived from HEK293 transfected cells was obtained. Such cells overexpress the histamine H2 receptor (rH2), a G-protein coupled receptor (GPCR) of the Gs type that, when activated, promotes cAMP synthesis and which is inactivated by regulatory domain-mediated desensitization of G-protein stimulation (RGS) of GRK2. The clone obtained not only overexpresses rH2 but also overexpresses a negative dominant mutant of GRK2, the GRK2-K220R variant, which cannot phosphorylate GPCRs but can inactivate them through its RGS domain. In this system, the desensitizing effect of the RGS domain of GRK2 on the cAMP response of rH2 is evident.
Clones derived from HEK293 cells were obtained by stable and sequential transfection with pcDNA3.1Zeo(+)-HARH2 and pcDNA3-GRK2K22OR plasmids using K2 Transfection System (BIONTEX) reactive, following manufacturer's instructions and using, for a 35 mm diameter plate, a mixture A of 2.7 μg of total DNA and 150 μl of DMEM base and a mixture B of 6 μl of K2 transfection reactive and 150 μl of base DMEM. The following day, cells were plated in 96-well plates with 0.3 ml of complete DMEM per well. For clone selection, cells were incubated in selection agent-supplemented medium (50 μg/ml Zeocine or 1.2 mg/ml geneticin), following a limit dilution protocol. According to this protocol, cells were counted and plated performing serial dilutions, so as to obtain wells with con 1000, 100, 10 and 1 cell. The medium was renewed every other day by replacing 100 μl in each well with 100 μl of fresh medium of the same composition. After three weeks, several antibiotic-resistant clones were selected and afterwards plasmid expression was analyzed by Western blot.
Adhered clones were maintained in a humidified-atmosphere oven, with 5% CO2 at 37° C., in 10% FBS-supplemented DMEM medium, 50 μg/ml gentamicin, 0.8 mg/ml geneticin and 50 μg/ml zeocin. Cells were passed by adding 0.05% trypsin solution and 0.3 mM EDTA.
In order to assess the effect of GRK2 inhibitor compounds, clones were plated in 48-well plates at 50% confluence. […]
Next, cells were incubated for 3 min with 1 mM IBMX, a phosphodiesterase inhibitor that prevents degradation of the cAMP produced and afterwards the rH2-Gαs-adenylate-cyclase-cAMP signaling route was stimulated for 9 minutes with the rH2-specific agonist, amthamine, at a 10 μM concentration. […] This was evaporated and cAMP levels were determined.
cAMP in samples was quantified by adapting the linking protein-binding technique according to Davio et al, 1995.

[2] = tested on: GRK2K220R/R106A (mutated RGS domain); assay: Selectivity control: cAMP response of rH2 in HEK293 clones overexpressing rH2 and GRK2K220R/R106A; assay type: cell-based; conditions: 10 μM amthamine, no significant differences
Description: In order to assess specificity of the effect of compounds over RGS domain of GRK2, assays were carried out in a second system that overexpresses rH2 and GRK2K220R/R106A, a GRK2 double mutant negative dominant construct that lacks both kinase activity and desensitization action through RGS domain. […] The R106A mutation that inactivates the RGS domain is redundant to the effect of an inhibitory potential, thus constituting the selectivity control of the model and allowing to determine if the enhancement in the receiver response occurred as a result of an inhibition of the RGS domain, or if it was the result of a non-specific action of the compound on an unwanted target. Those compounds that also raise cAMP levels in this control system are considered to be of non-specific action.
Since the latter mutation is redundant to the effect of a potential inhibitor of RGS domain of GRK2, this system allows us to discern whether the enhancement in the rH2 response occurred as a result of an RGS domain inhibition, or whether it resulted from a non-specific action of the compound on an unwanted target.

[3] = tested on: HEPG2 cell line
Description: (§1) Since hepatotoxicity is one of the main forms of toxicity in which drugs affect the body, the cytotoxicity of inhibitors was assessed using the human hepatocyte HEPG2 cell line.
(§2) Cells were plated in a 96-well plate at a 22,000 cell/well density and incubated for 48 hours with the compounds in a concentration range of between 0.33 μM and 200 μM. Afterwards, their viability was analyzed through trypan blue exclusion method and counted in Neubauer camera.

[4] = tested on: HEPG2 cell line; assay: Viability of human hepatocyte HEPG2 cells, trypan blue exclusion; conditions: 48 hours, 0.33 μM to 200 μM, versus DMSO control, C2 effect as from 10 μM
Description: as §1, §2

Structure (SMILES)	effect on H2 receptor capacity of response (cAMP) [1]	pEC50 [3]	melting point [°C]	effect over rH2 capacity of response (cAMP) with GRK2 mutated in the RGS domain [2]	cytotoxicity / cell viability [4]
O=C(Nc1ccc(-c2nnco2)cc1)c1cnc2ccccc2c1 [L94C, N-[4-(1,3,4-oxadiazol-2-yl)phenyl]quinoline-3-carboxamide]			202		
COC(=O)c1ccc(NC(=O)c2ccc3ccccc3c2)cc1 [L96B, methyl 4-(naphthalene-2-amido)benzoate]					did not affect cell viability

Further lines, with some results ahead:

effect on H2 receptor capacity of response (cAMP) [1]	pEC50 [3]	melting point [°C]	Structure (SMILES)	effect over rH2 capacity of response (cAMP) with GRK2 mutated in the RGS domain [2]	cytotoxicity / cell viability [4]
enhancing effect	4.99		CC(=O)N1CCc2cc(NC(=O)Nc3cccc4cccnc34)ccc21 [C2, 3-(1-acetyl-2,3-dihydro-H-indol-5-yl)-1-(quinoline-8-yl)urea]	lack of effect	
enhancing effect			Cc1ccc2cc(C(=O)Nc3cccc(-c4nnco4)c3)c(C)nc2c1 [C3, 2,7-dimethyl-N-[3-(1,3,4-oxadiazol-2-yl)phenyl] quinoline-3-carboxamide]	lack of effect	
enhancing effect			O=C(CCc1ccc2ccccc2c1)N1CCCC(n2cccn2)C1 (centres unmarked) [C4, 3-(naphtalen-2-yl)-1-[3-(1H-pyrazol-1-yl)piperidin-1-yl]propan-1-one]	lack of effect	
enhancing effect			O=C(Cc1n[nH]c(=O)c2ccccc12)Nc1cccc2ncccc12 [C5, 2-(4-oxo-3,4-dihydrophthalazin-1-yl)-N-(quinoline-5-yl)acetamide]	lack of effect	
